The source of these data is patent US7981915B2, “Methods for modulating PPAR biological activity for the treatment of diseases caused by mutations in the CFTR gene” (Beth Israel Deaconess Medical Center, priority 2003, dated 2011).

The test system of assay [1] is PPARα mRNA. Description: Liver PPARα mRNA by quantitative RT-PCR (DSS colitis / DHA). It is filed as in vivo, mice. On the procedure:
(§1) On day 40, WT and cftr^−/− mice were fed Peptamen alone or Peptamen plus 125 mg DSS/day (MP Biomedicals, Aurora, Ohio) for 5 days followed by 9 days of 85 mg DSS/day as previously described for the genesis of bile duct injury (Blanco, P. G. et al., supra). The amount of DSS in Peptamen was equally measured for WT and cftr^−/− mice. The volume of Peptamen administered (20 ml) was measured on a daily basis. There was no difference in Peptamen intake between WT and cftr^−/− mice. The mean weight of WT mice at the start of DSS treatment was 20.5 g (range 14.5-26 g), and the mean weight of cftr^−/− mice was 18.9 g (range 15.5-23.5 g). These values were not statistically different between WT and cftr^−/− mice. […] There was no difference in weight lost during DSS treatment comparing WT and cftr^−/− mice. Additional mice from these groups were given DHA (Pure Encapsulations, Sudbury, Mass.) prepared as a stable emulsion in Peptamen, at a dose of 40 mg per day for 5 days before and continued for 14 days during administration of the DSS. Bile duct injury was quantified, as previously described, by examining histological features of epithelial injury, bile duct proliferation, and bile duct angulation (Blanco et al., supra). To determine whether a complete absence of PPARα was responsible for the bile duct injury, 5 PPARα^−/− mice were treated with 5% DSS in drinking water for 7 days to induce colitis (Okayasu et al., Gastroenterology, 98:694-702, 1990). PPARγ^−/− mice are not viable and thus were not tested.
After each specific treatment, the mice were euthanized with carbon dioxide. Tissues were snap frozen in RNAlater (Ambion, Austin, Tex.) for RNA extraction (Barrett et al., Nat Genet, 23:32-33, 1999). PPAR mRNA analyses were performed by quantitative RT-PCR. Total RNA from cftr^−/− and WT tissues was prepared using the RNA STAT-60 isolation reagent (Tel-Test, Friendswood, Tex.) and quantified spectrophotometrically. Quantitative PCR was performed in an ABI Prism 7700 Sequence Detector (Applied Biosystems, Foster City, Calif.) using a RT-PCR master mix kit (Applied Biosystems) according to the manufacturer's instructions. PCR primers and PPAR FAM-labeled TaqMan probes were from Integrated DNA Technologies (Coralville, Iowa). The oligonucleotide sequences used for PPARγ were the following: PPARγ exon 2 FW 5′-TCACAAGAGCTGACCCAATGGT-3′ (SEQ ID NO: 1), PPARγ exon 2 RV 5′-ATAATAAGGTGGAGATGCAGGTTCTAC-3′ (SEQ ID NO: 2), PPARγ probe 5′-FAM-CTGAAGCTCCAAGAATACCAAAGTGCGATC-TAMRA-3′ (SEQ ID NO: 3). The sequences used for PPARα were the following: PPARα FW 5′-TATTCGGCTGAAGCTGGTGTAC-3′ (SEQ ID NO: 9), PPARα RV 5′-CTGGCATTTGTTCCGGTTCT-3′ (SEQ ID NO: 10), PPARα probe 5′-CTGAATCTTGCAGCTCCGATCACACTTG-3′ (SEQ ID NO: 11). Levels of mRNA were normalized to 18s ribosomal RNA (ribosomal RNA control reagents, Applied Biosystems) quantified simultaneously to PPAR in a multiplex RT-PCR reaction. Thermocycler conditions used were—Stage 1: 48° C./30 minutes; Stage 2: 95° C./10 minutes; Stage 3: 40 cycles of 95° C./15 seconds and 60° C./60 seconds. All samples were analyzed in duplicate.

Assay [2] relates to IL-6. Description: LPS-induced IL-6 secretion from peritoneal macrophages after in vivo DHA pretreatment. The arrangement: species or system mice. As to conditions: CF peritoneal macrophages; oral DHA pretreatment 40 mg/day for 10 days. Here is the method:
(§2) Cftr^−/− exon 10 knockout mice and wild-type (WT) littermates were maintained on peptamen (as described above). Peritoneal macrophages were induced by intraperitoneal injection of 2 ml thioglycollate broth followed by harvesting of the macrophages 4 days after injection. For studies determining the effect of in vivo pretreatment of DHA, cftr^−/− mice were given 40 mg DHA/day for 10 days. For in vitro experiments, harvested macrophages were plated in RPMI medium with 10% serum and incubated for 12 hours with media alone or with DHA (5 μM), EPA (5 μM) the PPAR agonist Wy14643 (50 μM) or the PPAR agonist rosiglitazone (10 μM). The cells were washed and then stimulated with 0-10000 ng/ml LPS for 4.5 hours. TNFα and IL-6 secretion were measured by ELISA. Fatty acids were analyzed by GC/MS.

In assay [3] the test system is TNFα. The assay can be described thus: LPS-induced TNFα secretion from peritoneal macrophages incubated in vitro with PPAR agonists. It is filed as cell-based, mice. As to conditions: in vitro 12 hours, DHA 5 μM, Wy14643 50 μM, rosiglitazone 10 μM. On the procedure: as §2
For assay [4], the system named is PPARα mRNA. As to conditions: rat liver; cited from earlier work.
Assay [5] deals with IL-6. Description: LPS-induced IL-6 secretion from peritoneal macrophages incubated in vitro with PPAR agonists. As to conditions: CF macrophages; in vitro 12 hours; Wy14643 50 μM, rosiglitazone 10 μM; 100 ng/ml LPS. It is filed as cell-based, mice.
In assay [6] the target is T1, PPARα (Mus musculus, UniProt P23204).
T1 construct: from tissue; host or cells: mouse liver homogenate (WT and cftr-/- C57/BL6)
T1 sequence (P23204 1-468): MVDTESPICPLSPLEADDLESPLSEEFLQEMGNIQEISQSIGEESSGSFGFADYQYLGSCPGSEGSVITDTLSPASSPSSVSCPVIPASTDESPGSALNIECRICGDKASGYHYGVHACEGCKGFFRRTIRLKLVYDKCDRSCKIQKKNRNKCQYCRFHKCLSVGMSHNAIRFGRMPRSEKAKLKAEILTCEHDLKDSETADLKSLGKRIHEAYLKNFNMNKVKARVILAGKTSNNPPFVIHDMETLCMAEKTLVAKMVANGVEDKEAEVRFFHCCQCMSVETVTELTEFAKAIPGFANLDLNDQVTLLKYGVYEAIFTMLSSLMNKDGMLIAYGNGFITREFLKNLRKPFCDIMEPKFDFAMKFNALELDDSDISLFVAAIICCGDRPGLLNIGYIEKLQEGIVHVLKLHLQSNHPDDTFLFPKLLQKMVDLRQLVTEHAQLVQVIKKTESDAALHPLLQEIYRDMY
The assay can be described thus: Western blot of PPARα in nuclear and cytosolic liver extracts. The settings on record: 3 mice per group. The assay is classed as in vivo. On the procedure:
as §1, with “Additional mice from these groups were given DHA (Pure Encapsulations, Sudbury, Mass.) prepared as a stable emulsion in Peptamen, at a dose of 40 mg per day for 5 days before and continued for 14 days during administration of the DSS.” left out, “To determine whether a complete absence of PPARα was responsible for the bile duct injury, 5 PPARα^−/− mice were treated with 5% DSS in drinking water for 7 days to induce colitis (Okayasu et al., Gastroenterology, 98:694-702, 1990). PPARγ^−/− mice are not viable and thus were not tested.” left out
For western blotting, nuclear and cytoplasmic extracts were prepared as described previously (Ollero et al., supra). […] Protein concentration was measured in all samples by the Bradford protein assay (Bio-Rad, Hercules, Calif.). […]

Assay [7] concerns PPARγ mRNA. The assay can be described thus: Liver PPARγ mRNA by quantitative RT-PCR (DSS colitis / DHA). The settings on record: WT and cftr−/− mice; DSS in the absence or presence of DHA; to undetectable levels. The assay is classed as in vivo. On the procedure:
On day 40, WT and cftr^−/− mice were fed Peptamen alone or Peptamen plus 125 mg DSS/day (MP Biomedicals, Aurora, Ohio) for 5 days followed by 9 days of 85 mg DSS/day as previously described for the genesis of bile duct injury (Blanco, P. G. et al., supra). The amount of DSS in Peptamen was equally measured for WT and cftr^−/− mice. The volume of Peptamen administered (20 ml) was measured on a daily basis. There was no difference in Peptamen intake between WT and cftr^−/− mice. The mean weight of WT mice at the start of DSS treatment was 20.5 g (range 14.5-26 g), and the mean weight of cftr^−/− mice was 18.9 g (range 15.5-23.5 g). […] Bile duct injury was quantified, as previously described, by examining histological features of epithelial injury, bile duct proliferation, and bile duct angulation (Blanco et al., supra). […]
After each specific treatment, the mice were euthanized with carbon dioxide. […] PPAR mRNA analyses were performed by quantitative RT-PCR. Total RNA from cftr^−/− and WT tissues was prepared using the RNA STAT-60 isolation reagent (Tel-Test, Friendswood, Tex.) and quantified spectrophotometrically. Quantitative PCR was performed in an ABI Prism 7700 Sequence Detector (Applied Biosystems, Foster City, Calif.) using a RT-PCR master mix kit (Applied Biosystems) according to the manufacturer's instructions. […] All samples were analyzed in duplicate.

The mark [8] stands for this setting: WT mice, single treatment, compared to untreated.
[9] abbreviates: cftr−/− mice, single treatment, compared to untreated.

For the compound `CC/C=C\C/C=C\C/C=C\C/C=C\C/C=C\C/C=C\CCC(=O)O` [DHA, Docosahexaenoic Acid], the “increase in liver PPARα mRNA” value is recorded as 10.4 fold in assay [1] (WT mice, combination of DSS and DHA, compared to no DSS and no DHA); 12.1 fold in assay [1] (setting [8]); 2.7 fold in assay [1] (cftr−/− mice, combination of DSS and DHA, compared to DSS only, not statistically significant); 4.3 fold in assay [1] (cftr−/− mice, combination of DSS and DHA, compared to no DSS and no DHA); 7.0 fold in assay [1] (setting [9]). Further, in assay [2], the “LPS-induced IL-6 secretion” value is recorded as “no effect”.
As to `CC/C=C\C/C=C\C/C=C\C/C=C\C/C=C\CCCC(=O)O` [EPA, eicosapentaenoic acid], the “decrease in LPS induced TNFα secretion” value in assay [3] (CF macrophages, EPA 5 μM, 100 ng/ml LPS) is listed as “no effect”.
In the case of `Cc1cccc(Nc2cc(Cl)nc(SCC(=O)O)n2)c1C` [Wy14643], in assay [3] (WT macrophages), the “decrease in LPS induced TNFα secretion” value is listed as “did not alter secretion”. Further, the “PPARα mRNA levels” value in assay [4] was “increase PPARα mRNA levels”.
Take `CN(CCOc1ccc(CC2SC(=O)NC2=O)cc1)c1ccccn1` (stereo not shown) [rosiglitazone]: in assay [3] (WT macrophages), the “decrease in LPS induced TNFα secretion” value is given as 18%. Moreover, the “decrease in LPS induced IL-6 secretion” value in assay [5] is “no effect”.
For dextran sodium sulfate [DSS], the “PPARα nuclear/cytoplasmic ratio, liver (densitometry)” value in assay [6] (WT mice) stood at 1.06±0.05; in assay [6] (cftr−/− mice) it was 0.61±0.02. Also, the “increase in liver PPARα mRNA” value in assay [1] (setting [8]) is reported as 9.3 fold; in assay [1] (setting [9]), “no significant change”. For the same compound, the “liver PPARγ mRNA levels” value in assay [7] is on record as “markedly suppressed”.
